Here are results for 28 compounds from patent publication US7253191B2, “2-thio-substituted imidazole derivatives and the use thereof in the pharmaceutical industry” (Merckle GmbH, priority 2001, dated 2007).

Molecules are shown by their SMILES. pIC50: −log10 of the molar value.

The test system of one test is IL-1β. Description: In vitro test of cytokine release: LPS-stimulated human whole blood / PBMCs, IL-1β by ELISA. The format is cell-based. Particulars: for pIC50: LPS (E.coli 026:B6) stimulation 4 hours, table does not say whole blood or PBMCs. The protocol:
(§1) They may be administered in one individual dose or in a plurality of doses. The activity spectrum of the compounds as inhibitors of cytokine release was examined using the test systems below, as described by C. Donat and S. Laufer in Arch. Pharm. Pharm. […] 1, 1-40, 2000.
(§2) The reaction is stopped by placing the samples on ice, adding DPBS buffer and then centrifuging at 1000*g for 15 min. The amount of IL-1β and TNFα in the plasma supernatant is then determined by ELISA.
(§3) The cells are washed twice with DPBS buffer, resuspended in macrophage SFM medium and adjusted to a cell count of 1*10^6 cells/ml.
(§4) The reaction is stopped by placing the samples on ice, adding DPBS buffer and then centrifuging at 15 880*g for 12 min. The amount of IL-1β and TNFα in the plasma supernatant is then determined by ELISA.

Another test relates to TNF-α. Description: In vitro test of cytokine release: LPS-stimulated human whole blood / PBMCs, TNFα by ELISA. It is filed as cell-based. As to conditions: for pIC50: LPS (E.coli 026:B6) stimulation 4 hours, table does not say whole blood or PBMCs; for TNF-α, value given in %: concentration not given. As for the experimental part:
as §1, §2, §3, §4

By pIC50 is commonly meant −log10 of the IC50, conventionally taken in molar units. Read a low pIC50 as a high IC50. Consider `CSc1nc(-c2ccc(F)cc2)c(-c2ccnc(NCc3ccccc3)c2)n1C` [Example 70, 4-(4-Fluorophenyl)-1-methyl-5-(2-benzylamino-4-pyridyl)-2-methyl-thioimidazole], for which the pIC50 was 7.10 in the test with IL-1β (Homo sapiens, Table 2) and 6.41 in the test on TNF-α (Homo sapiens, Table 2).

On to `CS(=O)(=O)c1ccc(CSc2nc(-c3ccc(F)cc3)c(-c3ccncc3)n2C2CCCCC2)cc1` [Example 39, 1-Cyclohexyl-4-(4-fluorophenyl)-2-(4-methylsulfonyl)benzylthio-5-(4-pyridyl)imidazole], for which the values for the negative logarithm of the IC50 (pIC50) in the test on IL-1β (Table 1) and with TNF-α (Table 1) were 5.74 and 4.89, respectively.

Consider `CCCn1c(Sc2ccc(SC)cc2)nc(-c2ccc(F)cc2)c1-c1ccncc1` [Example 54, 4-(4-Fluorophenyl)-2-(4-methylsulfanyl)phenylsulfanyl-1-n-propyl-5-(4-pyridyl)imidazole], for which the results for the negative logarithm of the IC50 (pIC50) in the test with IL-1β (Table 1) and with TNF-α (Table 1) were 5.60 and 4.17, respectively.

As for `CCCn1c(SC)nc(-c2ccc(F)cc2)c1-c1ccnc(NCC)c1` [Example 74, 4-(4-Fluorophenyl)-1-n-propyl-5-(2-ethylamino-4-pyridyl)-2-methylthioimidazole], the pIC50 is 6.82 in the test on IL-1β (Homo sapiens, Table 2) and 6.39 in the test on TNF-α (Homo sapiens, Table 2).

In the case of `Cc1nc(S)n(-c2ccc(F)cc2)c1-c1ccncc1` [Example 57, 1-(4-Fluorophenyl)-4-methyl-5-(4-pyridyl)imidazole-2-thiol], the pIC50 in the test on IL-1β (Homo sapiens, Table 1) was 4.72. In the test on TNF-α (Table 1), the “TNF-α, value given in %” value was 34%.

As for `CCCn1c(SC)nc(-c2ccc(F)cc2)c1-c1ccncc1` [Example 21, 4-(4-Fluorophenyl)-2-methylthio-1-n-propyl-5-(4-pyridyl)imidazole], the pIC50 was 6.44 with IL-1β (Homo sapiens, Table 1) and 5.89 with TNF-α (Homo sapiens, Table 1).

In the test with IL-1β (Table 1), `OCCCn1c(-c2ccncc2)c(-c2ccc(F)cc2)[nH]c1=S` [Example 17, 4-(4-Fluorophenyl)-1-(3-hydroxypronyl)-5-(4-pyridyl)-2-thioimidazole] showed a pIC50 of 5.14. In addition, the “TNF-α, value given in %” value with TNF-α (Table 1) is 49%.

Regarding `CC(C)n1c(SCc2ccc(S(C)(=O)=O)cc2)nc(-c2ccc(F)cc2)c1-c1ccncc1` [Example 35, 4-(4-Fluorophenyl)-2-(4-methylsulfonyl)benzylthio-1-isopropyl-5-(4-pyridyl)imidazole], the results for the negative logarithm of the IC50 (pIC50) in the test on IL-1β (Table 1) and in the test with TNF-α (Table 1) were 5.82 and 5.57, respectively.

On to `CSc1nc(-c2ccc(F)cc2)c(-c2ccncc2)n1CCCN1CCOCC1` [Example 24, 4-(4-Fluorophenyl)-2-methylthio-1-N-morpholinopropyl-5-(4-pyridyl)-imidazole], for which the pIC50 was 6.00 in the test with IL-1β (Homo sapiens, Table 1) and 5.57 in the test on TNF-α (Homo sapiens, Table 1).

For the compound `COc1ccc(C(=O)Nc2cc(-c3c(-c4ccc(F)cc4)nc(SC)n3C)ccn2)cc1` [Example 67, 4-([lacuna]-Fluorophenyl)-1-methyl-5-[2-(4-methoxybenzamido)-4-pyridyl]-2-methylthioimidazole], the pIC50 in the test on IL-1β (Homo sapiens, Table 2) was 6.36; in the test with TNF-α (Homo sapiens, Table 2) it was 6.19.

Compound `CN(C)CCn1c(-c2ccncc2)c(-c2ccc(F)cc2)[nH]c1=S` [Example 11, 1-Dimethylaminoethyl-4-(4-fluorophenyl)-5-(4-pyridyl)-2-thioimidazole] showed a pIC50 in the test with IL-1β (Table 1) of 4.92. Moreover, in the test with TNF-α (Table 1), the “TNF-α, value given in %” value was determined as 19%.

On to `Fc1ccc(-c2[nH]c(=S)n(-c3ccccc3)c2-c2ccncc2)cc1` [Example 7, 4-(4-Fluorophenyl)-1-phenyl-5-(4-pyridyl)-2-thioimidazole], for which the pIC50 was 5.64 in the test on IL-1β (Table 1) and 4.43 with TNF-α (Table 1).

`CCCn1c(SCc2ccc([S+](C)[O-])cc2)nc(-c2ccc(F)cc2)c1-c1ccncc1` (centres unmarked) [Example 32, 4-(4-Fluorophenyl)-2-(4-methylsulfinyl)benzylthio-1-n-propyl-5-(4-pyridyl)imidazole]: the pIC50 is 5.80 with IL-1β (Table 1) and 4.62 in the test with TNF-α (Table 1).

As to `CSc1nc(-c2ccc(F)cc2)c(-c2ccncc2)n1C1CC(C)(C)NC(C)(C)C1` [Example 25, 4-(4-Fluorophenyl)-2-methylthio-5-(4-pyridyl)-1-(2,2,6,6-tetramethyl-piperidin-4-yl)imidazole], the pIC50 in the test on IL-1β (Homo sapiens, Table 1) is 6.07; in the test on TNF-α (Homo sapiens, Table 1), 4.80.

Consider `CCn1c(SCc2ccc(S(C)(=O)=O)cc2)nc(-c2ccc(F)cc2)c1-c1ccncc1` [Example 27, 1-Ethyl-4-(4-fluorophenyl)-2-(4-methylsulfonyl)benzylthio-5-(4-pyridyl)-imidazole], for which the pIC50 was 6.02 in the test with IL-1β (Table 1) and 5.39 in the test on TNF-α (Table 1).

As for `CCNc1cc(-c2c(-c3ccc(F)cc3)nc(SC)n2C)ccn1` [Example 73], the pIC50 was 7.30 in the test on IL-1β (Homo sapiens, Table 2) and 6.46 in the test with TNF-α (Homo sapiens, Table 2).

For the compound `CCCn1c(SCc2ccc(S(C)(=O)=O)cc2)nc(-c2ccc(F)cc2)c1-c1ccncc1` [Example 33, 4-(4-Fluorophenyl)-2-(4-methylsulfonyl)benzylthio-1-n-propyl-5-(4-pyridyl)imidazole], the pIC50 in the test on IL-1β (Table 1) is 6.14; in the test with TNF-α (Table 1), 5.17.

Take `CCCn1c(-c2ccncc2)c(-c2ccc(F)cc2)[nH]c1=S` [Example 3, 4-(4-Fluorophenyl)-1-n-propyl-5-(4-pyridyl)-2-thioimidazole]: the pIC50 with IL-1β (Table 1) was 5.62; in the test with TNF-α (Table 1), 4.49.

On to `Fc1ccc(-c2[nH]c(=S)n(CCN3CCOCC3)c2-c2ccncc2)cc1` [Example 16, 4-(4-Fluorophenyl)-1-N-morpholinoethyl-5-(4-pyridyl)-2-thioimidazole], for which the “IL-1β, value given in %” value in the test on IL-1β (Table 1, concentration not given) was 44%. In the test with TNF-α (Table 1), the “TNF-α, value given in %” value is listed as 34%.

In the case of `CSc1nc(-c2ccc(F)cc2)c(-c2ccncc2)n1C` [Example 20], the pIC50 with IL-1β (Table 1) was 6.35; in the test on TNF-α (Table 1) it was 5.60.

Take `CCCn1c(Sc2ccc(Cl)cc2)nc(-c2ccc(F)cc2)c1-c1ccncc1` [Example 53, 2-(4-Chlorophenyl)thio-4-(4-fluorophenyl)-1-n-propyl-5-(4-pyridyl)-imidazole]: the pIC50 in the test with IL-1β (Homo sapiens, Table 1) was 5.48; with TNF-α (Homo sapiens, Table 1), 4.54.

`CCn1c(-c2ccncc2)c(-c2ccc(F)cc2)[nH]c1=S` [Example 2, 1-Ethyl-4-(4-fluorophenyl)-5-(4-pyridyl)-2-thioimidazole]: the pIC50 with IL-1β (Table 1) is 5.89; in the test with TNF-α (Table 1), 4.39.

As for `Fc1ccc(-c2[nH]c(=S)n(C3CCN(Cc4ccccc4)CC3)c2-c2ccncc2)cc1` [Example 18], the pIC50 with IL-1β (Table 1) was 5.24; with TNF-α (Table 1) it was 4.42.

For the compound `CC(C)n1c(SCc2ccc(Cl)cc2)nc(-c2ccc(F)cc2)c1-c1ccncc1` [Example 34, 2-(4-Chlorobenzyl)thio-4-(4-fluorophenyl)-1-isopropyl-5-(4-pyridyl)-imidazole], the pIC50 with IL-1β (Homo sapiens, Table 1) is 5.28; with TNF-α (Homo sapiens, Table 1) it was 4.28.

As to `CSc1nc(-c2ccc(F)cc2)c(-c2ccnc(N)c2)n1C` [Example 66, 4-(4-Fluorophenyl)-1-methyl-5-(2-amino-4-pyridyl)-2-methyl-thioimidazole], the pIC50 in the test on IL-1β (Homo sapiens, Table 2) is 6.57; in the test on TNF-α (Homo sapiens, Table 2), 5.64.

Consider `CSc1nc(-c2ccc(F)cc2)c(-c2ccnc(NC(C)=O)c2)n1C1CC(C)(C)NC(C)(C)C1` [Example 63, 4-(4-Fluorophenyl)-1-(2,2,6,6-tetramethylpiperidin-4-yl)-5-(2-acetamido-4-pyridyl)-2-methylthioimidazole], for which the negative logarithm of the IC50 (pIC50) was 6.34 in the test on IL-1β (Homo sapiens, Table 2) and 5.35 in the test with TNF-α (Homo sapiens, Table 2).

As to `Fc1ccc(-c2[nH]c(=S)n(-c3cccnc3)c2-c2ccncc2)cc1` [Example 10, 4-(4-Fluorophenyl)-1-(3-pyridyl)-5-(4-pyridyl)-2-thioimidazole], the pIC50 with IL-1β (Table 1) was 5.10. The “TNF-α, value given in %” value in the test with TNF-α (Table 1) came to 42%.

For `Cn1c(S)nc(-c2ccc(F)cc2)c1-c1ccncc1` [Example 1, 4-(4-fluorophenyl)-1-methyl-5-(4-pyridyl)-2-thioimidazole], the negative-log IC50 (pIC50) was 5.44 in the test with IL-1β (Table 1) and 4.72 in the test on TNF-α (Table 1).
